Reference: US9221833B2, “Antiviral compounds” (GILEAD PHARMASSET LLC, priority 2011, dated 2015)
Like-named read-outs stand apart in the source and are kept apart here.

Experiments:
[1] = test system: genotype 2a J6 strain NS5A gene (M31 present); assay: Replicon assay, NS5A chimeric 2a JFH-1 replicon with 2a J6 NS5A, transient (t) or stable (s), Huh-Lunet cells; format: cell-based, HCV
Protocol: (§1) Evaluation of cell-based anti-HCV activity: Antiviral potency (EC50) was determined using a Renilla luciferase (RLuc)-based HCV replicon reporter assay. […] To perform the assay for genotype 2a (with M31 present in NS5A) or 2b, NS5A chimeric genotype 2a JFH-1 replicons that encodes a RLuc-Neo reporter and either genotype 2a J6 strain NS5A gene or genotype 2b MD2b-1 strain NS5A gene (both with M31 present) respectively, were either transiently transfected (t) into Huh-Lunet cells or were established as stably replicating replicon cells (s) is provided. Either cells were dispensed into 384-well plates for EC50 assays. To perform the assay for genotype 3 and 4, NS5A chimeric genotype 1b Con1 replicons that encodes a Pi-RLuc reporter and either genotype 3a S52 strain NS5A gene or genotype 4a ED43 strain NS5A gene respectively, were transiently transfected (t) into Huh-Lunet cells, which were subsequently dispensed into 384-well plates. Compounds were dissolved in DMSO at a concentration of 10 mM and diluted in DMSO either manually or using an automated pipeting instrument. Serially 3-fold diluted compounds were either manually mixed with cell culture media and added to the seeded cells or directly added to the cells using an automated instrument. […] 72 hours later, cells were lysed and Renilla luciferase activity quantified as recommended by the manufacturer (Promega-Madison, Wis.). Non-linear regression was performed to calculate EC50 values.

[2] = test system: genotype 1b Con1 replicon; assay: microbe, parasite or virus in culture; format: cell-based, HCV
Protocol: as §1

[3] = test system: genotype 1a H77 replicon; assay: microbe, parasite or virus in culture; format: cell-based, HCV; conditions: Hepatitis C virus
Protocol: as §1

[4] = test system: genotype 2b MD2b-1 strain NS5A gene (M31 present); assay: microbe, parasite or virus in culture; format: cell-based, HCV
Protocol: as §1

[5] = test system: genotype 2a JFH-1 replicon (L31 present in NS5A); assay: microbe, parasite or virus in culture; format: cell-based, HCV; conditions: Hepatitis C virus, read-out: 2a JFH
[6] = test system: genotype 2a JFH-1 replicon (L31 present in NS5A); assay: microbe, parasite or virus in culture; format: cell-based, HCV
Protocol: as §1

[7] = test system: genotype 3a S52 strain NS5A gene; assay: Replicon assay, NS5A chimeric 1b Con1 replicon with 3a NS5A, transiently transfected Huh-Lunet cells; format: cell-based, HCV
Protocol: as §1

[8] = test system: Q30R in genotype 1a NS5A; assay: Antiviral potency against resistance mutant, 1a Pi-Rluc replicon in Huh-7-derived cured-51 cells; format: cell-based, HCV
Protocol: as §1
To determine the antiviral potency (EC50) against resistance mutants, resistance mutations, including M28T, Q30R, Q30H, L31M, and Y93C in genotype 1a NS5A and Y93H in genotype 1b NS5A, were introduced individually into either 1a Pi-Rluc or 1b Pi-Rluc replicons by site directed mutagenesis. Replicon RNA of each resistant mutant was transiently transfected into Huh-7-derived cured-51 cells and antiviral potency was determined on these transfected cells as described above.

[9] = test system: genotype 4a ED43 strain NS5A gene; assay: Replicon assay, NS5A chimeric 1b Con1 replicon with 4a NS5A, transiently transfected Huh-Lunet cells; format: cell-based, HCV; conditions: Hepatitis C virus
Protocol: as §1, with “[…],” for “were transiently transfected (t) into Huh-Lunet cells,”

[10] = IV and PO Single Dose Pharmacokinetic Studies in SD Rats; format: in vivo, male Sprague-Dawley (SD) rats; conditions: oral bioavailability, PO 2 mg/kg vs IV infusion 1 mg/kg
Protocol: IV and PO Single Dose Pharmacokinetic Studies in SD Rats: The pharmacokinetics of selected compounds was characterized in male Sprague-Dawley (SD) rats (250-300g). […] The intravenous (IV) dosing vehicle was 5% ethanol, 35% polyethylene glycol 400 (PEG 400) and 60% water pH 2.0. […] Serial blood samples (approximately 0.3 mL each) were collected from jugular vein or other suitable vein at specified time points. […] The blood samples were collected into Vacutainer™ tubes containing EDTA-K3 as the anti-coagulant and were centrifuged at approximately 4° C. to obtain plasma. The plasma samples were stored at −20° C. until analysis by LC/MS/MS. […] Standard curve and quality control samples were prepared in male rat plasma and processed in the same way as the test samples to generate quantitative data. […] Values below the lower limit of quantification (LLOQ) were assigned a value of zero if predose and treated as missing thereafter. Area under the curve (AUC) was calculated using the linear trapezoidal rule. The oral bioavailability (% F) was determined by comparison of the area under the curve (AUC) of the compound and/or a metabolite generated in plasma following oral administration to that generated following intravenous administration.

[11] = Hepatitis C virus, read-out: 2a J6
[12] = Hepatitis C virus, read-out: 1b (nM)
[13] = Hepatitis C virus, read-out: 2b
[14] = Hepatitis C virus, read-out: 2a J6 (t) (nM)
[15] = Hepatitis C virus, read-out: 2a JFH (nM)
[16] = Hepatitis C virus, read-out: 2b (s) (nM)
[17] = Hepatitis C virus, read-out: 2b (t) (nM)

Structure (SMILES)	EC50 [1, 11]	EC50 [2, 12]	EC50 ([3]; read-out: 1a)	EC50 [4, 13]	EC50 [5]	EC50 [1, 14]	EC50 [6, 15]	EC50 ([3]; read-out: 1a (nM))	EC50 [4, 16]	EC50 [4, 17]	EC50 ([9]; read-out: 4a)	EC50 ([9]; read-out: 4a (s) (nM))	other results
CCC(C)[C@H](NC(=O)OC)C(=O)N1C[C@@H](C)CC1c1ncc(-c2ccc3c(c2)COc2cc4c(ccc5nc([C@@H]6C[C@H](COC)CN6C(=O)[C@@H](NC(=O)OC)C(C)OC)[nH]c54)cc2-3)[nH]1 (stereo in doubt) [Example QD, Methyl {(2S,3R)-1-[(2S,4S)-2-(5-{2-[(2S,4S)-1-[N-(methoxycarbonyl)-O-methyl-L-allothreonyl]-4-(methoxymethyl)pyrrolidin-2-yl]-1,11-dihydroisochromeno[4′,3′:6,7]naphtho[1,2-d]imidazol-9-yl}-1H-imidazol-2-yl)-4-methylpyrrolidin-1-yl]-3-methyl-1-oxopentan-2-yl}carbamate]	< 1 nM	0.03 nM	< 1 nM	< 1 nM	< 1000 pM								
COC(=O)NC(C(=O)N1CCCC1c1nc2ccc3cc4c(cc3c2[nH]1)OCc1cc(-c2cnc(C3CCCN3C(=O)C(NC(=O)O)C(C)C)[nH]2)ccc1-4)c1ccccc1 (stereo not drawn) [Example LQ, [1-(2-{5-[2-(1-{[(Methoxycarbonyl)amino](phenyl)acetyl}pyrrolidin-2-yl)-1,11-dihydroisochromeno[4′,3′:6,7]naphtho[1,2-d]imidazol-9-yl]-1H-imidazol-2-yl}pyrrolidin-1-yl)-3-methyl-1-oxobutan-2-yl]carbamic acid]	< 1 nM	0.02 nM	< 1 nM	< 1 nM	< 1000 pM	0.134 nM	0.004 nM	0.022 nM	0.035 nM	0.012 nM	< 1 nM	0.02 nM	EC50 ([1]; Hepatitis C virus, read-out: 2a J6 (s) (nM)): 0.543 nM; EC50 ([7]; Hepatitis C virus, read-out: 3a): < 1 nM; EC50 ([7]; Hepatitis C virus, read-out: 3a (nM)): 0.005 nM; EC50 ([8]; Hepatitis C virus, read-out: 1a Q30R): < 1 nM; EC50 ([8]; Hepatitis C virus, read-out: 1a Q30R (nM)): 0.135 nM; EC50 ([9]; read-out: 4a (t) (nM)): 0.008 nM
COC[C@H]1C[C@@H](c2nc3ccc4cc5c(cc4c3[nH]2)OCc2cc(-c3cnc([C@@H]4C[C@H]6C[C@H]6N4C(=O)[C@@H](NC(=O)OC)[C@@H](C)OC)[nH]3)ccc2-5)N(C(=O)[C@H](NC(=O)OC)c2ccccc2)C1 [Example MX]	< 1 nM	0.076 nM	< 1 nM	< 1 nM	< 1000 pM	0.035 nM	0.024 nM	0.036 nM	0.139 nM	0.07 nM	< 1 nM	0.033 nM	
COC[C@H]1C[C@@H](c2nc3ccc4cc5c(cc4c3[nH]2)OCc2cc(-c3cnc([C@@H]4CC[C@H](C)N4C(=O)[C@@H](NC(=O)OC)C(C)C)[nH]3)ccc2-5)N(C(=O)[C@@H](NC(=O)OC)[C@@H](C)OC)C1 [Example OM, Methyl {(2S)-1-[(2S,4S)-2-(5-{2-[(2S,5S)-1-{(2S,3R)-3-methoxy-2-[(methoxycarbonyl)amino]butanoyl}-4-(methoxymethyl)pyrrolidin-2-yl]-1,11-dihydroisochromeno[4′,3′:6,7]naphtho[1,2-d]imidazol-9-yl}-1H-imidazol-2-yl)-5-methylpyrrolidin-1-yl]-3-methyl-1-oxobutan-2-yl}carbamate]													EC50 ([1]; genotype 2a J6, EC50 range class, transiently transfected cells (t), if unavailable stably replicating cells (s), read-out: 2a J6): < 1 nM; EC50 ([1]; transiently transfected cells (t), read-out: 2a J6 (t)): 0.045 nM; EC50 ([2]; read-out: 1b): 0.019 nM; EC50 ([6]; genotype 2a JFH replicon, EC50 range class, read-out: 2a JFH): < 1 nM; EC50 ([6]; genotype 2a JFH replicon, read-out: 2a JFH): 0.009 nM; EC50 ([4]; genotype 2b, EC50 range class, transiently transfected cells (t), if unavailable stably replicating cells (s), read-out: 2b): < 1 nM; EC50 ([4]; stably replicating cells (s), read-out: 2b (s)): 0.054 nM; EC50 ([4]; transiently transfected cells (t), read-out: 2b (t)): 0.053 nM; EC50 ([7]; genotype 3a, EC50 range class, read-out: 3a): < 1 nM; EC50 ([7]; genotype 3a, read-out: 3a): 0.035 nM; EC50 ([8]; genotype 1a Q30R resistance mutant, EC50 range class, read-out: 1a Q30R): < 1 nM; EC50 ([8]; genotype 1a Q30R resistance mutant, read-out: 1a Q30R): 0.035 nM; Rat % F [10]: 12.2%
